Laboratory results: patent US20230323355A1 (priority 2020, published 2023)
pEC50: −log10 of the molar value.

System: SARS-CoV-2 Wuhan virus (SARS-CoV-2-WA1 2020)
Assay: microbe, parasite or virus in culture
Format: cell-based

SMILES: CCC(CC)COC(=O)[C@H](C)N[P@](=O)(OC[C@H]1O[C@@](C#N)(c2ccc3c(N)ncnn23)[C@H](O)[C@@H]1O)Oc1ccccc1 [Remdesivir]
- fold reduction in SARS-CoV-2 replication: 1.5 fold
- inhibition of SARS-CoV-2 Wuhan: did not inhibit
- pEC50 (Severe acute respiratory syndrome coronavirus 2, Vero C1008): ~6.10
